From patent US20220370424A1 (Deciphera Pharmaceuticals, LLC, priority 2017, published 2022)
Values belong to the compound of their own block, whether it stands above or below them.

How the values were obtained:
[1] = system: FIP1L1-PDGFRα fusion in EOL-1 cells; experiment: EOL-1 Western blot, phospho-PDGFRα (Tyr754); type: cell-based; conditions: Homo sapiens, EOL1, 4 hours, read-out: IC50, inhibition of phosphorylation of FIP1L1-PDGFRα fusion in EOL-1 cells
Method: (§1) Cells were washed with PBS, then lysed. Cell lysates were separated by SDS-PAGE and transferred to PVDF. Phospho-PDGFRα (Tyr754) was detected using an antibody from Cell Signaling Technology (Beverly, Mass.), ECL Plus detection reagent (GE Healthcare, Piscataway, N.J.) and a Molecular Devices Storm 840 phosphorimager in fluorescence mode. Blots were stripped and probed for total PDGFRα using an antibody from Cell Signaling Technology (Beverly, Mass.). IC50 values were calculated using Prism software (GraphPad, San Diego, Calif.).

[2] = biological target: T1, recombinant wild type PDGFRα (Homo sapiens, UniProt P16234); experiment: Biochemical assay for PDGFRα (coupled pyruvate kinase/lactate dehydrogenase); conditions: 0.5 mM ATP, 4.8 nM PDGFRA; read-out: IC50, inhibition of recombinant wild type PDGFRα enzyme activity
T1 construct: purchased DeCode Biostructures, Bainbridge Island, Wash
T1 sequence (P16234 with tags, fused parts or gaps): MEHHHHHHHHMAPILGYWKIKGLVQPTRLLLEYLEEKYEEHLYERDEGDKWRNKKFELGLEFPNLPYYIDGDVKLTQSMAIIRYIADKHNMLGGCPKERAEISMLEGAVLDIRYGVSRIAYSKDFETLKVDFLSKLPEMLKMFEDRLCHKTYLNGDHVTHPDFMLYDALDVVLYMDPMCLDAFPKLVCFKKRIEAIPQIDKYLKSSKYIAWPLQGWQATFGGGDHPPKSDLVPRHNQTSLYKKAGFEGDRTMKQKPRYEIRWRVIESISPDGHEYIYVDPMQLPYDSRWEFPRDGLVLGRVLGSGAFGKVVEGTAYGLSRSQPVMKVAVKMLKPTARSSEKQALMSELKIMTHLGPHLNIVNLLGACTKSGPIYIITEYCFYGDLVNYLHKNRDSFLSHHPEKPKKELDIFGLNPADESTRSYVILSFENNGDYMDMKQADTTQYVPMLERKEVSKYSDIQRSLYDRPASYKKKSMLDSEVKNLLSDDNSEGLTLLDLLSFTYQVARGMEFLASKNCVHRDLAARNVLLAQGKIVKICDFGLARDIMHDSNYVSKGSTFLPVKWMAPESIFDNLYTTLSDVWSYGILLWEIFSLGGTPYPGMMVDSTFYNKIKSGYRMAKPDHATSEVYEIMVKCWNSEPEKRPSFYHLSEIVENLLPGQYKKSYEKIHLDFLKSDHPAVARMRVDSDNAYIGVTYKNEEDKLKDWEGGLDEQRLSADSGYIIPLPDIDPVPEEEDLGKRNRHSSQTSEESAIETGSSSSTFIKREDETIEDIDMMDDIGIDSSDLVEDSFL
Method: Inhibition of PDGFRA was measured after adding serial diluted test compound (final assay concentration of 1% DMSO). A decrease in absorption at 340 nm was monitored continuously for 6 hours at 30° C. on a multi-mode microplate reader (BioTek, Winooski, Vt.). The reaction rate was calculated using the 1-2 h time frame. The reaction rate at each concentration of compound was converted to percent inhibition using controls (i.e. reaction with no test compound and reaction with a known inhibitor) and IC50 values were calculated by fitting a four-parameter sigmoidal curve to the data using Prism (GraphPad, San Diego, Calif.).

[3] = biological target: T2, D842V mutant PDGFRα expressed in BaF3 cells (Homo sapiens, UniProt P16234, D842V); experiment: BaF3 PDGFRα D842V Western blot, phospho-PDGFRα (Tyr754); type: cell-based; conditions: 4 hours, read-out: IC50, inhibition of phosphorylation of D842V mutant PDGFRα expressed in BaF3 cells
T2 construct: expressed in transfected cells; host or cells: BaF3 cells (IL-3 independent selection)
T2 sequence (P16234 24-1089 D842V): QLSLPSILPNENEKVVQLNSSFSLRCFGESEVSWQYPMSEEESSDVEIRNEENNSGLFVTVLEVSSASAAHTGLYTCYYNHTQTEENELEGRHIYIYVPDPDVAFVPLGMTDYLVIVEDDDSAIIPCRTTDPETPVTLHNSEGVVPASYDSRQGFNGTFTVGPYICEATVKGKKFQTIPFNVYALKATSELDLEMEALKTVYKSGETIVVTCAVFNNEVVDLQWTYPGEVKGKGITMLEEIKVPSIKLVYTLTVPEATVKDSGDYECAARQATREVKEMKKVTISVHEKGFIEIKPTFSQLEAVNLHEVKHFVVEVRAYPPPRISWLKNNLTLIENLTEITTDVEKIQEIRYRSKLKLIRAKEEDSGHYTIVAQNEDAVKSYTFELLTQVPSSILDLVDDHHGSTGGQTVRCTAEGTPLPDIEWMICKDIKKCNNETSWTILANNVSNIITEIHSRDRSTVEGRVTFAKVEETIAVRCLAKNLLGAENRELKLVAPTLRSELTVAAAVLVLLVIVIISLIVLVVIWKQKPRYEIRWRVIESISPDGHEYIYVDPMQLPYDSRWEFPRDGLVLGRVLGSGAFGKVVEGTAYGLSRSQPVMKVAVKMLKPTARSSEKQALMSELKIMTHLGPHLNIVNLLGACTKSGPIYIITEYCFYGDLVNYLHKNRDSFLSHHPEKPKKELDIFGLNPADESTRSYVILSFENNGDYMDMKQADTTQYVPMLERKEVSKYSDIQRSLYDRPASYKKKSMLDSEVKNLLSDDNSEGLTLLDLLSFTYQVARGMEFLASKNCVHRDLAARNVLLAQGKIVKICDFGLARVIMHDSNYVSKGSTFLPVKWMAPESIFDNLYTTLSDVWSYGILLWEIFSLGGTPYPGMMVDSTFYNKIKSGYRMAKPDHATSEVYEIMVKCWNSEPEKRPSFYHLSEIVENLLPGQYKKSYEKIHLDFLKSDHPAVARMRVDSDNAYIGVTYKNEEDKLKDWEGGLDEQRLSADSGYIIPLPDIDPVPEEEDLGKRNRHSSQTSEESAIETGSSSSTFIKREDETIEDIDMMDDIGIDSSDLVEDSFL
Source text: (§2) BaF3 cells were transfected with a construct encoding D842V PDGFRα and selected for IL-3 independence.
as §1

[4] = system: FIP1L1-PDGFRα fusion in EOL-1 cells; experiment: EOL-1 cell proliferation assay (resazurin); type: cell-based; conditions: Homo sapiens, EOL1; 67 h + 5 h resazurin; read-out: IC50, inhibition of proliferation of FIP1L1-PDGFRα fusion in EOL-1 cells
Method: (§3) A serial dilution of test compound was dispensed into a 96-well black clear bottom plate (Corning, Corning, N.Y.). Ten thousand cells were added per well in 200 μL complete growth medium. […] Plates were read on a Synergy2 reader (Biotek, Winooski, Vt.) using an excitation of 540 nm and an emission of 600 nm. Data was analyzed using Prism software (GraphPad, San Diego, Calif.) to calculate IC50 values.

[5] = biological target: T3, recombinant D842V mutant PDGFRα (Homo sapiens, UniProt P16234, D842V); experiment: Biochemical assay for PDGFRα D842V (coupled pyruvate kinase/lactate dehydrogenase); conditions: 0.5 mM ATP, 3 nM PDGFRA D842V; read-out: IC50, inhibition of recombinant D842V mutant PDGFRα enzyme activity
T3 construct: His (N); purchased Invitrogen, Carlsbad, Calif
T3 sequence (P16234 with tags, fused parts or gaps D842V): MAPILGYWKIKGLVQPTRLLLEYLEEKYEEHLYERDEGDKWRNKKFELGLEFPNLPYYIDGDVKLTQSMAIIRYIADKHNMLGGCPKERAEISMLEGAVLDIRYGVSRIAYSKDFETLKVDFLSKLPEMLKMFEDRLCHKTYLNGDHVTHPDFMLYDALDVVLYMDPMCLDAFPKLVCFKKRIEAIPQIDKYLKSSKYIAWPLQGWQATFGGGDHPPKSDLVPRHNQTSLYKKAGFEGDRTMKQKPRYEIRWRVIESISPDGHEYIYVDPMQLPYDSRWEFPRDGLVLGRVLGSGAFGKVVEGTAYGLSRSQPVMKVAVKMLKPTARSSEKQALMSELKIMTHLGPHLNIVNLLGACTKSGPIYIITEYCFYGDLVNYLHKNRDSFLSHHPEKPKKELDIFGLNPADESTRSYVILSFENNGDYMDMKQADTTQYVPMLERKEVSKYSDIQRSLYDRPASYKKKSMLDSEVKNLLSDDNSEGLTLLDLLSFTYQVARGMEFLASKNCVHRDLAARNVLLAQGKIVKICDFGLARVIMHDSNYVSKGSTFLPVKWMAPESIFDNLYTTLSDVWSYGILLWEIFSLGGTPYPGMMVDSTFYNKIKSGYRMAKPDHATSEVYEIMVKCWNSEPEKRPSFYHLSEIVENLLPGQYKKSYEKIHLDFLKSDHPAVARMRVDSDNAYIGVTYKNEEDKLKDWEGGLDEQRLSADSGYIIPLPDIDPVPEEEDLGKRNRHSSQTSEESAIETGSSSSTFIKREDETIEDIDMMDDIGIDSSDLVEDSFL
Method: (§4) The reaction rate was calculated using the 2-3 h time frame.

[6] = biological target: T4, recombinant wild type PDGFRβ (Homo sapiens, UniProt P09619); experiment: Biochemical assay for PDGFRB (coupled pyruvate kinase/lactate dehydrogenase); conditions: 0.5 mM ATP, 9 nM PDGFRB; read-out: IC50, inhibition of recombinant wild type PDGFRβ enzyme activity
T4 construct: purchased DeCode Biostructures, Bainbridge Island, Wash
T4 sequence (P09619 with tags, fused parts or gaps N1019K): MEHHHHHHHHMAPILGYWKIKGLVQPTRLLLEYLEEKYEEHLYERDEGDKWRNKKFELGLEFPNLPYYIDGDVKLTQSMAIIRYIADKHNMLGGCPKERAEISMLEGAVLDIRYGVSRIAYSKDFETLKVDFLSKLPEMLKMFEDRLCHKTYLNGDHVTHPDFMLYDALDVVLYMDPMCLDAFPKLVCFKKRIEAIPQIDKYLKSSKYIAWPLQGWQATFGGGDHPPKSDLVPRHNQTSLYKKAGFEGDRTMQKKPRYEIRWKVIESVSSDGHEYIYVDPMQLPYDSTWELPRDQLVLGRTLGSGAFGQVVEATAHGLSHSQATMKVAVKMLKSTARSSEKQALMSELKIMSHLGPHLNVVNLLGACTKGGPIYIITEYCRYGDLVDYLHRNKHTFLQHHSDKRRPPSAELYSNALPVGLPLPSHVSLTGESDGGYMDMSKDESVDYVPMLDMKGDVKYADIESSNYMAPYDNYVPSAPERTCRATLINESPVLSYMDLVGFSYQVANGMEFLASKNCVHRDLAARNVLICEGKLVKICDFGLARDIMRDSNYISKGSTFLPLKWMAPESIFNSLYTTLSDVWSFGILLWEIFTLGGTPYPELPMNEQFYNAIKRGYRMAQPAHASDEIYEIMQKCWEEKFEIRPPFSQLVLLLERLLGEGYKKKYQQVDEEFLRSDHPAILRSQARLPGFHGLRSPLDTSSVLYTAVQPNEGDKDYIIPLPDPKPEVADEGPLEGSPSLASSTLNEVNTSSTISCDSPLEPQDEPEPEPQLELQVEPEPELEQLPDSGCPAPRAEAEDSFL
Method: as §4

[7] = system: D842V mutant PDGFRα BaF3 cells; experiment: BaF3 PDGFRα D842V cell proliferation assay (resazurin); type: cell-based; conditions: Mus musculus, 67 h + 5 h resazurin, read-out: IC50, inhibition of proliferation of D842V mutant PDGFRα BaF3 cells
Method: as §2, §3

[8] = Phase 1 study: plasma pharmacokinetics, Cycle 1 Day 15, after oral Compound A; type: in vivo, human; conditions: patients, Cycle 1 Day 15 steady state; for Cmax: human, po, 150 mg, Compound A Cmax (mean)
Source text: Phoenix WinNonlin version 6.3 was used to analyze plasma concentration versus time data for calculation of standard noncompartmental PK parameters. All PK calculations were completed using the nominal sample collection times.

[9] = system: PDGFRα amplified glioblastoma; experiment: Phase 1 study: antitumor activity (RANO) in glioblastoma patient with PDGFRα amplification; type: in vivo, human; conditions: GBM patient, 20 mg BID oral
Method: (§5) Preliminary antitumor activity was measured by CT scans according to RANO (Revised Assessment in Neuro-Oncology) criteria every other cycle followed by after every cycle (every 56 or 84 days). Pharmacodynamic effects […] were measured as a reduction in circulating tumor cells (CTC). Whole blood was enriched for CTCs in an OncoQuick tube. The CTC layer was incubated with an adenovirus that replicates and expresses GFP in cells with high levels of telomerase (Oncolys BioPharma Inc.). Cells were then incubated with fluorescently-labeled antibodies, fixed, and stained with DAPI. Cells positive for DAPI, GFP, PDGFRα and GFAP fluorescence were counted as circulating glioblastoma tumor cells using a BioTek Cytation 5 imager. Glial fibrillary acidic protein (GFAP) is unambiguously attributed to glial cells.
All patients had to have progressive disease on standard of care treatment and would rapidly progress without treatment. One patient with PDGFRα amplified glioblastoma (GBM; 6× amplified, 12 copies) was enrolled in the study at the 20 mg BID dose level. The patient had been treated initially with combined radio-chemotherapy followed by temozolomide alone and progressed after 3 months. The GBM patient is now in cycle 19 (>17 months on study) and continues to benefit from treatment. […] FIG. 1B provided an additional proof of the tumor reduction after cycle 9.

[10] = system: PDGFRα D842V mutation in plasma cell-free DNA; experiment: Phase 1 study: PDGFRα D842V mutation allele frequency in plasma cfDNA (Guardant 360); type: in vivo, human; conditions: GIST patient at 100 mg BID
Method: (§6) Preliminary antitumor activity was measured by CT scans according to RECIST 1.1 every other cycle (every 56 days). Pharmacodynamics effects were measured as a reduction in mutation allele frequency (MAF) in plasma cell-free (cf) DNA and analyzed with Guardant 360 v2.9 or v2.10 (Guardant Health, Redwood City, Calif.), a. 73-gene next generation sequencing panel.
To date, cfDNA follow up data for PDGFRα D842V mutation allele frequency in plasma are available for the patient at 100 mg BID only. The PDGFRα D842V mutation was not detected by cfDNA at baseline, but at Cycle 3 Day 1 (8 weeks) post-treatment a frequency of 0.59% was detected.

[11] = system: circulating glioblastoma tumor cells (PDGFRα+/GFAP+); experiment: Phase 1 study: circulating glioblastoma tumor cells (PDGFRα+/GFAP+ CTC) in whole blood; type: in vivo, human; conditions: GBM patient, 20 mg BID
Method: as §5
The relevance of PDGFRα amplification has been assessed in pediatric and adult high-grade astrocytomas (HGA) including glioblastomas. […] Dunn et al., provide additional evidence that PDGFRα amplification is a driver genomic alteration for GBM (Dunn et al., Genes Dev. (2012) 26(8):756-84). […] The frequency dropped in cycles 13 (52 weeks) and 17 (68 weeks) to 1.11 and 0.58 CTCs/mL, respectively.

[12] = system: PDGFRα D842V mutated Gastrointestinal Stromal Tumors (GIST); experiment: Phase 1 study DCC-2618-01-001: antitumor activity (RECIST 1.1) in GIST patients with PDGFRα D842V mutation; type: in vivo, human; conditions: GIST patient
Method: as §6
All patients had to have progressive disease on standard of care treatment and would rapidly progress without treatment. Three patients with PDGFRα-mutated Gastrointestinal Stromal Tumors (GIST) were enrolled in the study. The PDGFRα D842V mutation was identified in each patient by tumor biopsy. Based on non-clinical data and the available pharmacokinetic data from study DCC-2618-01-001, dose levels of >50 mg BID (daily dose equivalent 100 mg) were sufficient to lead to tumor control i.e. growth arrest in these advanced sarcomas of PDGFRα D842V mutation-dependent tumors in patients suffering from GIST. Out of 3 evaluable patients, 2 were enrolled at or above target-effective dose levels (150 mg QD and 100 mg BID). […] The patient at 100 mg BID is now in Cycle 11 (>40 weeks) and continues to benefit from treatment. […] The 2 patients had 1 and 3 prior treatments with Tyrosine Kinase Inhibitors, respectively.

IC50 [1]: < 0.1 nM | IC50 [2]: 6 nM | IC50 [3]: 26 nM | IC50 [5]: 20 nM | IC50 [6]: 5 nM | IC50 [7]: 42 nM
Compound: CCn1c(=O)c(-c2cc(NC(=O)Nc3ccccc3)c(F)cc2Br)cc2cnc(N)cc21 [Compound B, 1-(5-(7-amino-1-ethyl-2-oxo-1,2-dihydro-1,6-naphthyridin-3-yl)-4-bromo-2-fluorophenyl)-3-phenylurea]
IC50 [4]: 0.018 nM

Compound: CCn1c(=O)c(-c2cc(NC(=O)Nc3ccccc3)c(F)cc2Br)cc2cnc(NC)cc21 [Compound A, 1-[4-bromo-5-[1-ethyl-7-(methylamino)-2-oxo-1,2-dihydro-1,6-naphthyridin-3-yl]-2-fluorophenyl]-3-phenylurea]
Cmax ([8]; oral Compound A 150 mg BID): 1500 ng/mL | Cmax ([8]; oral Compound A 150 mg QD): 861 ng/mL | Compound A AUC12h (mean) ([8]; oral Compound A 150 mg QD): 8,070 ng*h/mL | Tumor response according to the RANO criteria ([9]; PDGFRα 6× amplified, since assessment after Cycle 12 (48 weeks)): Partial Response | Time on study with continued benefit ([9]; PDGFRα amplified, cycle 19): > 17 months | PDGFRα D842V mutation allele frequency in plasma cfDNA ([10]; Cycle 3 Day 1 (8 weeks), not detected at baseline): 0.59% | PDGFRα D842V mutation allele frequency in plasma cfDNA ([10]; Cycle 5 Day 1 (16 weeks) and Cycle 7 Day 1 (24 weeks)): undetectable | Frequency of double positive CTCs (PDGFRα+/GFAP+) ([11]; cycle 7 (28 weeks)): 2.22 CTCs/mL | Frequency of double positive CTCs (PDGFRα+/GFAP+) ([11]; cycle 13 (52 weeks)): 1.11 CTCs/mL | Frequency of double positive CTCs (PDGFRα+/GFAP+) ([11]; cycle 17 (68 weeks)): 0.58 CTCs/mL | Clinical outcome ([12]; 30 mg BID oral, cycles of 28 days): progressed after 2 treatment cycles | Time on treatment with continued benefit ([12]; 100 mg BID oral, Cycle 11): > 40 weeks | Tumor assessment according to RECIST 1.1 ([12]; 100 mg BID oral, most recent assessment): Stable Disease | Tumor reduction ([12]; 150 mg QD oral): some tumor reduction observed | Time on treatment ([12]; 150 mg QD oral, Cycle 6): > 20 weeks | Tumor assessment per RECIST ([12]; 150 mg QD oral, Cycle 6): stable disease
